ChEMBL document CHEMBL5108012, “Discovery of 2,5-diphenyl-1,3,4-thiadiazole derivatives as HDAC inhibitors with DNA binding affinity” (Eur J Med Chem, 2022)
Activity calls are given as the source filed them. No cut-off for these calls is given here.

Assays:
HCT-116 [1] = test: Induction of apoptosis in human HCT-116 cells assessed as late apoptotic cells at 1.5 uM incubated for 48 hrs by PI and annexin V-FITC staining based flow cytometry (reference value: 3.4%); type: functional
HCT-116 [2] = test: Induction of apoptosis in human HCT-116 cells assessed as increase in cleaved caspase-3 expression at 0.17 to 1.5 uM incubated for 48 hrs by Western blot analysis; type: functional, cell-based; details: dose 0.17-1.5 µM
MC38 = test: Inhibition of HDAC in mouse MC-38 cells assessed as increase in acetylated HH3 expression expression at 0.17 to 1.5 uM incubated for 48 hrs by Western blot analysis; type: cell-based; details: dose 0.17-1.5 µM
MC-38 [3] = test: Antitumor activity against mouse MC38 cells xenografted in C57BL/6 mouse assessed as necrosis in tumor at 50 to 100 mg/kg, ip administered every 2 days for 16 consecutive days measured by H and E staining method; type: functional, organism-based; details: dose 50-100 mg/kg, time 16.0 day
HCT-116 [4] = test: Downregulation of SPT16 expression in human HCT-116 cells at 0.17 to 1.5 uM measured after 24 hrs by Western blot analysis; type: functional, cell-based; details: dose 0.17-1.5 µM
Calf thymus DNA [5] = test: Binding affinity to calf thymus DNA at 50 uM incubated for 30 mins and measured by UV-vis absorption spectroscopy; type: nucleic-acid assay; details: Bos taurus
MC-38 [6] = test: Antitumor activity against mouse MC38 cells xenografted in C57BL/6 mouse assessed as decrease in Ac-HH3 expression in tumor at 50 to 100 mg/kg, ip administered every 2 days for 16 consecutive days measured by immunohistochemistry analysis; type: functional, organism-based; details: dose 50-100 mg/kg, time 16.0 day
Calf thymus DNA [7] = test: Binding affinity to calf thymus DNA at 50 uM incubated for 30 mins and measured by fluorescence spectroscopy; type: nucleic-acid assay; details: Bos taurus
HEL = test: Antiproliferative activity against human HEL cells after 48 hrs by CCK-8 assay; type: functional, cell-based
Histone deacetylase 1 = Histone deacetylase 1 (Homo sapiens, UniProt Q13547); test: Inhibition of HDAC1 in human HeLa cell nuclear extract using Boc-Lys(Ac)-AMC or Boc-Lys(triflouroacetyl)-AMC as substrate incubated for 30 mins and measured by fluorescence assay; type: cell-free
HCT-116 [8] = test: Antiproliferative activity against human HCT-116 cells after 48 hrs by CCK-8 assay; type: functional, cell-based; details: HCT-116, 48 h
MC-38 [9] = test: Antiproliferative activity against mouse MC38 cells after 48 hrs by CCK-8 assay; type: functional, cell-based; details: MC-38, 48 h
MOLT-4 = test: Antiproliferative activity against human MOLT-4 cells after 48 hrs by CCK-8 assay; type: functional, cell-based; details: MOLT-4, 48 h
MC-38 [10] = test: Antitumor activity against mouse MC38 cells xenografted in C57BL/6 mouse assessed as decrease in tumor weight at 50 to 100 mg/kg, ip administered every 2 days for 16 consecutive days; type: functional, organism-based; details: dose 50-100 mg/kg, time 16.0 day

Chain of Histone deacetylase 1 (Q13547 whole entry): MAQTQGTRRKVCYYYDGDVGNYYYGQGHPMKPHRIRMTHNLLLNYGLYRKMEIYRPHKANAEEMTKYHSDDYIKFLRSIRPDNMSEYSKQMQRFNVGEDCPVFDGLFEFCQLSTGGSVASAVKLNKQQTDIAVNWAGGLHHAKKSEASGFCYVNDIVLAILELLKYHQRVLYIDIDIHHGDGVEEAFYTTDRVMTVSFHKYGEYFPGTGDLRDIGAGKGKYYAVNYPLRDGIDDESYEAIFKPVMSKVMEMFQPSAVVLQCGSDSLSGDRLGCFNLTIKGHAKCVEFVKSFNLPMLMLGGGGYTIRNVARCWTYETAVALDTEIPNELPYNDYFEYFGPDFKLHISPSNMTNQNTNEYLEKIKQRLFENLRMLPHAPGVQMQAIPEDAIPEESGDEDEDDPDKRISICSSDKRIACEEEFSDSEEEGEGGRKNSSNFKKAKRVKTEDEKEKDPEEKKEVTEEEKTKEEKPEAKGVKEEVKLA

With `O=C(CCCCCOc1cccc(-c2nnc(-c3ccccc3)s2)c1)NO` the Activity (HCT-116 [1]) was 38.5%, the Activity (HCT-116 [2]) was “Active” and the inhibition (MC38) was “Active”. The Activity (MC-38 [3]) was “Active”, the Activity (HCT-116 [4]) was “Active” and the Activity (Calf thymus DNA [5]) was “Active”. The Activity (MC-38 [6]) was “Active”, the Activity (Calf thymus DNA [7]) was “Active” and the IC50 (HEL) was 280 nM. The IC50 (Histone deacetylase 1) was 15 nM, the IC50 (HCT-116 [8]) was 470 nM and the IC50 (MC-38 [9]) was 430 nM. The IC50 (MOLT-4) was 150 nM and the Activity (MC-38 [10]) was “Active”.
